Results taken from patent publication US8927535B2, “Cyclopropyl-fused-1,3-thiazepines as BACE1 and/or BACE2 inhibitors” (Hoffman-La Roche Inc., priority 2011, dated 2015).

Target: T1, BACE2 (Rattus norvegicus, UniProt Q6IE75)
T1 construct: endogenous cellular BACE2 in the Ins1e rat cell line; endogenous in cells; host or cells: INS-TMEM27 (INS1e-derived rat cell line with doxycycline-inducible full-length hTMEM27)
T1 sequence (Q6IE75 63-514): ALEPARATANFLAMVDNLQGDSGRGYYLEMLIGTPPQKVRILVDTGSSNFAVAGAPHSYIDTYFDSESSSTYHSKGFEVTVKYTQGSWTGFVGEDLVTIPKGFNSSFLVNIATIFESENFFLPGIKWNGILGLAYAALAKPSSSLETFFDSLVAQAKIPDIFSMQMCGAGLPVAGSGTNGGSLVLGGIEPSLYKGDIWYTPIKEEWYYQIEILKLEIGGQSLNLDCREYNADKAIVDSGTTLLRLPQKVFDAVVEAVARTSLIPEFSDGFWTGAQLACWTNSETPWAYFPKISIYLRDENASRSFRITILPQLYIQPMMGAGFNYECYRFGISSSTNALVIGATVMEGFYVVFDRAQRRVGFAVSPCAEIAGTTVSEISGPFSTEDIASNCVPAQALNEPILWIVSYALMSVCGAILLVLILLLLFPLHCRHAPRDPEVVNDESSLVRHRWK
Assay: Assay for BACE inhibition by measuring cellular TMEM27 cleavage
Type: cell-based
Conditions: INS-TMEM27 (INS1e-derived) cells, endogenous BACE2, shed human TMEM27 in medium by ELISA
Source text: Assay for BACE Inhibition by Measuring Cellular TMEM27 Cleavage:
The assay uses the principle of inhibition of human TMEM27 cleavage by endogenous cellular BACE2 in the Ins1e rat cell line and shedding from the cell surface into the culture medium, followed by detection in an ELISA assay. Inhibition of BACE2 prevents the cleavage and shedding in a dose-dependent manner.
The stable cell line “INS-TMEM27” represents an INS1e-derived cell line with inducible expression (using the TetOn system) of full-length hTMEM27 in a doxycycline-dependent manner.
INS-TMEM27 cells are seeded in 96-well plates. After 2 days in culture, BACE2 inhibitor is added in a range of concentrations as required by the assay and after a further two hours, doxycycline is added to a final concentration of 500 ng/ml. The cells are incubated for a further 46 hours and the supernatant harvested for detection of shed TMEM27.
An ELISA assay (using a pair of mouse anti-human-TMEM27 antibodies, raised against the extracellular domain of TMEM27) is used for detection of TMEM27 in the culture medium. An EC50 for BACE2 inhibition is calculated using the ELISA readout for each inhibitor concentration with standard curve-fitting software such as XLFit for the Excel spreadsheet program.

IC50: 690 nM
SMILES: NC1=N[C@@]2(c3cc(NC(=O)c4ccc(Cl)cn4)ccc3Cl)C[C@H]2CCS1 (racemic) [Example 4, N-(3-((1SR,7SR)-3-amino-4-thia-2-azabicyclo[5.1.0]oct-2-en-1-yl)-4-chlorophenyl)-5-chloropicolinamide]
